Columns and labels:
[1] = molecular target: purified N-terminal truncated human LSD1 enzyme (aa 151-852) (Homo sapiens (Human), UniProt O60341); assay: LSD1 fluorescence coupling enzymatic assay (horseradish peroxidase/Amplex Red); assay type: biochemical; details: 50 nM LSD1, 30 min pre-incubation, 10 μM histone 3.3 peptide (aa 1-21), 10-point dose-response; read-out: IC50 (nM), Inhibition of LSD1 Activity
Description: Briefly, compounds of the present invention were solubilized in DMSO and a series of 10, three-fold serial dilutions were made for each compound in 15% DMSO. The initial starting concentration for the serial dilutions of each compound was 10 μM.
An aliquot of each serial dilution of test compound was added to a 96 well plate containing 50 nM purified N-truncated LSD1 enzyme (RBC Cat# PDM-11-350), 50 mM Tris-HCl, pH 7.5, 0.05% CHAPS and 1% DMSO in a 10 microliter reaction volume. The plate was pre-incubated at room temperature for 30 min to which 10 μM of histone 3.3 peptide (aa 1-21) was added to initiate the enzymatic reaction. The reaction mixture was incubated at room temperature for one hour. […] The IC50 value for each compound was determined from each 10-point dose-response curve using GraphPad Prism 4 software with a sigmodial dose response.

MV4-11 cells = assay: Inhibition of LSD1-mediated cellular proliferation, CellTiter Glo luminescence assay; assay type: cell-based, human; details: Day 7, cell viability by CellTiter Glo
Description: The MV4-11 cell line cell line was established from the blast cells of a person with biphenotypic B-myelomonocytic leukemia.
Inhibition of LSD1-mediated cellular proliferation by compounds of Formula (I) was measured in a CellTiter Glo luminescence assay (Promega Corp), which determines the number of viable cells by quantitating the amount of ATP, using a BMG LabTech CLARIOStar instrument in accordance with the manufacturer's instructions. Briefly, MV4-11 cells were plated at a density of 1000 cells/90 μl/well in 96 well culture plates and cultured in IMDM medium (Gibco) supplemented with 10% fetal bovine serum (FBS) and 1% penicillin and 1% streptomycin at 37° C. […] Control samples lacking test compound or cells were processed in parallel. The plates were incubated at 37° C. for four days and thereafter 50 μl fresh medium containing the same concentration of test compound was added. The plates were incubated for an additional three days (Day 7). A baseline measurement, as described below, was taken for a time zero point at Day 0.
At Day 7, the supernatant was removed by aspiration and the plate was allowed to equilibrate to room temperature (˜15 min). The cells were lysed using 45 μl (30 μl for Day 0) of Cell Titer Glo reagent (Promega Corp). The plates were shaken for two minutes and incubated at room temperature for 30 minutes. The degree of inhibition of cell viability was determined using a spectrophotometric readout by measuring the luminescence at 340 nm and the EC50 concentration for each compound was calculated using Graph Pad Prism 4 software.

SMILES | IC50 [1] [nM] | EC50 (MV4-11 cells) [nM] | EC50 (MV4-11 cells; Homo sapiens, 168 h) [nM]
CONC(=O)/C=C/c1ccc(CN2CCC(N[C@@H]3C[C@H]3c3ccccc3)CC2)cc1 (relative stereo) [Example 1, (E)-N-Methoxy-3-(4-((4-(((trans)-2-phenylcyclopropyl)amino)piperidin-1-yl)methyl)phenyl)acrylamide] | 15 | – | –
CS(=O)(=O)NC(=O)/C=C/c1ccc(CN2CCC(N[C@@H]3C[C@H]3c3ccccc3)CC2)cc1 (relative stereo) [Example 2, (E)-N-(Methylsulfonyl)-3-(4-((4-(((trans)-2-phenylcyclopropyl)amino)piperidin-1-yl)methyl)phenyl)acrylamide] | 30 | – | –
C(=C\c1ccc(CN2CCC(N[C@@H]3C[C@H]3c3ccccc3)CC2)cc1)/c1ccccc1 (relative stereo) [Example 12] | 23 | 32 | –
C(=C\c1cccc(CN2CCC(N[C@@H]3C[C@H]3c3ccccc3)CC2)c1)/c1ccccc1 (relative stereo) [Example 13, N-(trans-2-phenylcyclopropyl)-1-(3-((E)-styryl)benzyl)piperidin-4-amine] | 17 | – | 37
C(=C\c1nnn[nH]1)/c1cccc(CN2CCC(N[C@@H]3C[C@H]3c3ccccc3)CC2)c1 (relative stereo) [Example 14] | 118 | 174 | –
CS(=O)(=O)NC(=O)/C=C/c1ccc(CN2CCC(N[C@@H]3C[C@H]3c3ccccc3)CC2)cc1 [Example 15, (E)-N-(Methylsulfonyl)-3-(4-((4-(((1R,2S)-2-phenylcyclopropyl)amino)piperidin-1-yl)methyl)phenyl)acrylamide] | 10 | – | –
CS(=O)(=O)NC(=O)c1ccc(CN2CCC(N[C@@H]3C[C@H]3c3ccccc3)CC2)cc1 [Example 34, N-(Methylsulfonyl)-4-((4-(((1R,2S)-2-phenylcyclopropyl)amino)piperidin-1-yl)methyl)benzamide] | 3 | – | 60
CS(=O)(=O)NC(=O)Cc1ccc(CN2CCC(N[C@@H]3C[C@H]3c3ccccc3)CC2)cc1 [Example 35, N-(Methylsulfonyl)-2-(4-((4-(((1R,2S)-2-phenylcyclopropyl)amino)piperidin-1-yl)methyl)phenyl)acetamide] | 25 | – | 30
O=C(/C=C/c1ccc(CN2CCC(CN[C@@H]3C[C@H]3c3ccccc3)CC2)cc1)NS(=O)(=O)c1ccccc1 [Example 48, (E)-3-(4-((4-((((1R,2S)-2-Phenylcyclopropyl)amino)methyl)piperidin-1-yl)methyl)phenyl)-N-(phenylsulfonyl)acrylamide] | 33 | – | 9
CS(=O)(=O)NC(=O)/C=C/c1ccc(CN2CCC(CN[C@@H]3C[C@H]3c3ccccc3)CC2)cc1 [Example 49, (E)-N-(methylsulfonyl)-3-(4-((4-((((1R,2S)-2-phenylcyclopropyl)amino)methyl)piperidin-1-yl)methyl)phenyl)acrylamide] | – | – | 26
CS(=O)(=O)NC(=O)c1ccc(CN2CCC(CN[C@@H]3C[C@H]3c3ccccc3)CC2)cc1 [Example 53, N-(Methylsulfonyl)-4-((4-((((1R,2S)-2-phenylcyclopropyl)amino)methyl)piperidin-1-yl)methyl)benzamide] | 27 | – | 19
CS(=O)(=O)NC(=O)Cc1ccc(CN2CCC(CN[C@@H]3C[C@H]3c3ccccc3)CC2)cc1 [Example 57] | 44 | – | 1
